# Reference: ChEMBL document CHEMBL4304832, “Novel Pyrazole-Containing Compounds Active against Mycobacterium tuberculosis” (ACS Med Chem Lett, 2019)
# Tests used:
# [1] = tested on: Mycobacterium tuberculosis; assay: Antitubercular activity against Mycobacterium tuberculosis H37Rv incubated for 6 days by resazurin dye based fluorescence assay; type: functional; details: 144 h
# [2] = Protection Index, ratio of CC50 for human HepG2 cells to MIC for Mycobacterium tuberculosis H37Rv; type: toxicity; details: read-out: PI
# [3] = Kinetic solubility of the compound in pH 7.4 phosphate buffered saline; type: physicochemical; details: read-out: Kinetic_solubility
# [4] = target: Albumin (Homo sapiens, UniProt P02768); assay: Binding affinity to HSA by HPLC analysis; type: ADME; details: isolated protein
# Chain of Albumin (P02768 whole entry): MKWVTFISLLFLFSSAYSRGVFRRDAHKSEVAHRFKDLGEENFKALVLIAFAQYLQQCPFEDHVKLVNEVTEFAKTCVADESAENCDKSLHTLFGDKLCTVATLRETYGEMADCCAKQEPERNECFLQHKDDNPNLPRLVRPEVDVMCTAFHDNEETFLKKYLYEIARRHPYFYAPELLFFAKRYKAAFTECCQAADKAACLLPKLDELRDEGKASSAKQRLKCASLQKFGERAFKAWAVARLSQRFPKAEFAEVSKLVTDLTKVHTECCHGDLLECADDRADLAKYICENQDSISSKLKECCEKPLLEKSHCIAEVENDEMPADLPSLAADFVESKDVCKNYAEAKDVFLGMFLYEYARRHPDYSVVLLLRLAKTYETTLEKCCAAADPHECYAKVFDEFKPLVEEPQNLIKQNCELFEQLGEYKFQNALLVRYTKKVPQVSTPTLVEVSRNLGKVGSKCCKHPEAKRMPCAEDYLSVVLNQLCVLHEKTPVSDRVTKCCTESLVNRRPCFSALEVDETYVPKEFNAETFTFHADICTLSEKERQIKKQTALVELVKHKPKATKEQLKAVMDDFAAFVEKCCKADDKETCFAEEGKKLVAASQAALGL
# [5] = Chromatographic lipophilicity, log D of compound in PBS ay pH 7.4 by UV-HPLC analysis; type: physicochemical; details: for chromatographic logD: PBS
# [6] = Solubility of the compound in FASSIF at 1 mg incubated for 4 hrs by UPLC-MS analysis; type: physicochemical
# [7] = Cytotoxicity against human HepG2 cells incubated for 48 hrs by CellTiter Glo assay; type: cell-based
# [8] = target: Voltage-gated inwardly rectifying potassium channel KCNH2 (Homo sapiens, UniProt Q12809); assay: Inhibition of human ERG
# Chain of Voltage-gated inwardly rectifying potassium channel KCNH2 (Q12809 whole entry): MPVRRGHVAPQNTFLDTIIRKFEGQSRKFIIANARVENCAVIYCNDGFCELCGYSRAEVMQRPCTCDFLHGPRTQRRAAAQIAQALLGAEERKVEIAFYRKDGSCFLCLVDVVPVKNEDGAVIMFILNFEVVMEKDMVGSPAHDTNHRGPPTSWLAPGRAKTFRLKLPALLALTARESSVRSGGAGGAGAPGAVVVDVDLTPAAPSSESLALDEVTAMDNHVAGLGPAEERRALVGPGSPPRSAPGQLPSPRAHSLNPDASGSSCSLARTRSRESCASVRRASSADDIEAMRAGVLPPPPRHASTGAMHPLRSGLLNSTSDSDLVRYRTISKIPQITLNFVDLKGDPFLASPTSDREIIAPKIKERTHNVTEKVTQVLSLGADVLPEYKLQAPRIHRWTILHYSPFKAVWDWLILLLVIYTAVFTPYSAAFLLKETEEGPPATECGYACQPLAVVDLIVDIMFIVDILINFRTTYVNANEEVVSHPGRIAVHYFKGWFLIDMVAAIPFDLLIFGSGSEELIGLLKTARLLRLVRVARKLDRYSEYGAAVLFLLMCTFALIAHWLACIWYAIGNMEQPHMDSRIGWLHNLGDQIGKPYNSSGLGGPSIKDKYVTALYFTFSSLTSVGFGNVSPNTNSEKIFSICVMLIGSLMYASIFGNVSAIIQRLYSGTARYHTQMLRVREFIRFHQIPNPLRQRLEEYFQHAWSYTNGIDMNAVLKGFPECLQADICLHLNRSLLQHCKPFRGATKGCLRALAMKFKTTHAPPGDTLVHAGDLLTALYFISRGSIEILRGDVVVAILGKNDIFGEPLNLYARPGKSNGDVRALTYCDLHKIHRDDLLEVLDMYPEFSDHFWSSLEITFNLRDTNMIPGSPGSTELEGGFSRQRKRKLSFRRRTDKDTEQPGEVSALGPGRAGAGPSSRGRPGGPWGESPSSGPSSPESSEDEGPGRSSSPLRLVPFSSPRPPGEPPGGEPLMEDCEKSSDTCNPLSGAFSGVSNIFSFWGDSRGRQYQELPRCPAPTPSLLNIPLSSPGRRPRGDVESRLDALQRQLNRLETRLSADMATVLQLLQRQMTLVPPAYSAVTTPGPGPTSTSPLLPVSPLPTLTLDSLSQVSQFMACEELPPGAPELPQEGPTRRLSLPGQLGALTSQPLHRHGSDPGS
# [9] = Permeability of the compound in pH 7.05 phosphate buffer incubated for 3 hrs by artificial membrane permeability assay based LCMS analysis; type: ADME; details: PAMPA, read-out: permeability
# [10] = Intrinsic clearance in human liver microsomes at 0.5 uM measured up to 30 mins in presence of NADPH by UPLC/MS/MS analysis; type: ADME, Microsome; details: 0.5 h
# [11] = tested on: Mycobacterium tuberculosis; assay: Antitubercular activity against Mycobacterium tuberculosis H37Rv infected in C57BL/6 mouse assessed as reduction in bacterial load in lungs at 200 mg/kg administered once daily starting from 5 days post infection for 4 consecutive days and measured on day 9; type: functional
# [12] = tested on: Mycobacterium tuberculosis; assay: Antitubercular activity against Mycobacterium tuberculosis H37Rv infected in C57BL/6 mouse assessed as reduction in bacterial load in lungs at 30 mg/kg administered once daily starting from 5 days post infection for 4 consecutive days and measured on day 9; type: functional
Structure (SMILES),MIC [1] [µM],selectivity ratio [2],solubility kinetic [3] [µM],Activity [4] [%],chromatographic logD [5],solubility at 4 h [6] [µg/mL],CC50 at 48 h [7] [µM],IC50 [8] [µM],Papp at 3 h [9] [×10⁻⁶ cm/s],CLH [10] [mL/min/g],Activity [11] [log10CFU],logD ([5]; buffer),Activity [12] [log10CFU]
Cc1c(CN2CCOCC2)cc(-c2ccc(C(C)C)cc2)n1-c1ccc(F)cc1,0.12,333,< 1,98.37,8.1,5,,,,,,,
CC(C)n1nc(CN2CCOCC2)cc1-c1ccc(C(F)(F)F)cc1,23,> 4,,,,,> 100,,,,,,
COC1CCN(Cc2cc(-c3ccc(C(F)(F)F)cc3)n(C(C)C)n2)CC1,2.5,32,,,,,79.4,,,,,,
CC(C)c1ccc(-c2cc(CN3CC[Si](C)(C)CC3)nn2C2CCCCC2)cc1,0.04,315,46,97.35,,,12.6,8,,,,,
COC1CCN(Cc2cc(-c3ccc(C(F)(F)F)cc3)n(C3CCCCC3)n2)CC1,1.2,26,,,,,31.6,,,,,,
CC(C)(C)OC(=O)N1CCN(Cc2cc(-c3ccc(C(F)(F)F)cc3)n(C3CCCCC3)n2)CC1,2,> 50,,,,,> 100,,,,,,
CC(C)(C)OC(=O)N1CCN(Cc2cc(-c3ccc(C(F)(F)F)cc3)n(-c3ccc(F)cc3)n2)CC1,4,> 25,,,,,> 100,,,,,,
FC(F)(F)c1ccc(-c2cc(CN3CCOCC3)nn2C2CCCCC2)cc1,2.5,20,,,,,50,,,,,,
FC(F)(F)c1ccc(-c2cc(CN3CCSCC3)nn2C2CCCCC2)cc1,1.2,53,,,,,63.1,,,,,,
COC1CCN(Cc2cc(-c3ccc(C(F)(F)F)cc3)n(-c3ccc(F)cc3)n2)CC1,0.3,105,258,96.47,6.67,,31.6,3.2,17,,,,
CC(C)c1ccc(-c2cc(CN3CCOCC3)nn2C2CCC2)cc1,0.4,125,305 to 306,96.72,7.37,139,50,32,61,2.8,0.3,,
C[Si]1(C)CCN(Cc2cc(-c3ccc(C(F)(F)F)cc3)n(C3CCCCC3)n2)CC1,0.07,180,69,96.32,8.49,,12.6,2.5,,,,,
COC1CCN(Cc2cc(-c3ccc(C(C)C)cc3)n(-c3ccc(F)cc3)n2)CC1,0.3,105,152,96.42,7.31,,31.6,6.31,44,,1.5,,
CC(C)c1ccc(-c2cc(CN3CCOCC3)nn2C2CCCCC2)cc1,0.4,158,78.5,97.11,8.29,100,63.1,> 50,35,3.4,0.4,,
C[Si]1(C)CCN(Cc2cc(-c3ccc(C(F)(F)F)cc3)n(-c3ccc(F)cc3)n2)CC1,0.02,,53,96.65,8.13,,16,,,,,,
CC(C)c1ccc(-c2cc(CN3CCN(c4ccccn4)CC3)nn2C2CCCCC2)cc1,0.5,80,15,98.41,,,40,> 50,< 0.3,,,9.83,
CC(C)c1ccc(-c2cc(CN3CC[Si](C)(C)CC3)nn2-c2ccc(F)cc2)cc1,0.00925,1360,41,97.49,8.82,,12.6,2,,,,,
FC(F)(F)c1ccc(-c2cc(CN3CCN(c4ccccn4)CC3)nn2C2CCCCC2)cc1,1,50,,,,,50,,,,,,
FC(F)(F)c1ccc(-c2cc(CN3CCCCC3)nn2C2CCCCC2)cc1,2.5,20,,,,,50,,,,,,
Fc1ccc(-n2nc(CN3CCN(c4ccccn4)CC3)cc2-c2ccc(C(F)(F)F)cc2)cc1,2,16,,,,,32,,,,,,
Fc1ccc(-n2nc(CN3CCCCC3)cc2-c2ccc(C(F)(F)F)cc2)cc1,2.5,16,,,,,40,,,,,,
CC(C)c1ccc(-c2cc(CN3CCN(c4ccccn4)CC3)nn2-c2ccc(F)cc2)cc1,0.5,128,6,98.45,8.76,,64,25.1,< 3,,,,
COc1c(N2C[C@@H]3CCCN[C@@H]3C2)c(F)cc2c(=O)c(C(=O)O)cn(C3CC3)c12 [MOXIFLOXACIN],,,,,,,,,,,,,3.5
